# Data taken from ChEMBL document CHEMBL1201862, “PubChem BioAssay data set” (2004).
#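 All cell lines were grown in 96-well plates and treated with compound for 48 hours. GI50 marks 50% less growth.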 Activity calls are given as the source filed them. No stated cut-off is given here; in the data, active = GI50 up to about 1.1 µM and inactive = higher.
# Assays:
# Test in all cases: NCI anticancer screen, dose series, 48 h
# DMS-114 = tested on: DMS-114
# SW-620 = tested on: SW-620
# LXFL 529 = tested on: LXFL 529
# NCI-H226 = tested on: NCI-H226
# LOX IMVI = tested on: LOX IMVI
# SN12C = tested on: SN12C
# KM-20L2 = tested on: KM-20L2
# RPMI-8226 = tested on: RPMI-8226
# Malme-3M = tested on: Malme-3M
# SR = tested on: SR
# HT-29 = tested on: HT-29
# HOP-62 = tested on: HOP-62
# SK-MEL-5 = tested on: SK-MEL-5
# HL-60 = tested on: HL-60
# NCI-H460 = tested on: NCI-H460
# SF-539 = tested on: SF-539
# DLD-1 = tested on: DLD-1
# HCT-15 = tested on: HCT-15
# SK-MEL-28 = tested on: SK-MEL-28
# XF498 = tested on: XF498
# OVCAR-3 = tested on: OVCAR-3
# HOP-18 = tested on: HOP-18
# SK-MEL-2 = tested on: SK-MEL-2
# SK-OV-3 = tested on: SK-OV-3
# NCI-H522 = tested on: NCI-H522
# SNB-19 = tested on: SNB-19
# SF-295 = tested on: SF-295
# U-251 = tested on: U-251
# HOP-92 = tested on: HOP-92
# SF-268 = tested on: SF-268
# OVCAR-5 = tested on: OVCAR-5
# ACHN = tested on: ACHN
# A549 = tested on: A549
# UACC-62 = tested on: UACC-62
# UO-31 = tested on: UO-31
# 786-0 = tested on: 786-0
# EKVX = tested on: EKVX
# DMS-273 = tested on: DMS-273
# CCRF-CEM = tested on: CCRF-CEM
# UACC-257 = tested on: UACC-257
# SNB-75 = tested on: SNB-75
# OVCAR-4 = tested on: OVCAR-4
# NCI-H23 = tested on: NCI-H23
# M19-MEL = tested on: M19-MEL
# RXF 631 = tested on: RXF 631
# M14 = tested on: M14
# OVCAR-8 = tested on: OVCAR-8
# A498 = tested on: A498
# CAKI-1 = tested on: CAKI-1
# MOLT-4 = tested on: MOLT-4
# COLO 205 = tested on: COLO 205
# HCC 2998 = tested on: HCC 2998
# IGROV-1 = tested on: IGROV-1
# HCT-116 = tested on: HCT-116
# KM12 = tested on: KM12
# K562 = tested on: K562
# SNB-78 = tested on: SNB-78
# RXF 393 = tested on: RXF 393
smiles,measurement,setting,value
CC(C)CC1CC2C(=O)N(c3ccccc3)C(=O)C2c2[nH]c3ccccc3c21 (stereo not drawn),GI50,DMS-114,15.9 µM (inactive)
same,GI50,SW-620,23.8 µM (inactive)
same,GI50,LXFL 529,60 µM (inactive)
same,GI50,NCI-H226,24.5 µM (inactive)
same,GI50,LOX IMVI,16.8 µM (inactive)
same,GI50,SN12C,13.9 µM (inactive)
same,GI50,KM-20L2,> 100 µM (inactive)
same,GI50,RPMI-8226,29.2 µM (inactive)
same,GI50,Malme-3M,9.73 µM (inactive)
same,GI50,SR,10.4 µM (inactive)
same,GI50,HT-29,51.9 µM (inactive)
same,GI50,HOP-62,18.8 µM (inactive)
same,GI50,SK-MEL-5,> 80.9 µM (inactive)
same,GI50,HL-60,15.3 µM (inactive)
same,GI50,NCI-H460,29.2 µM (inactive)
same,GI50,SF-539,23.2 µM (inactive)
same,GI50,DLD-1,29 µM (inactive)
same,GI50,HCT-15,17.3 µM
same,GI50,SK-MEL-28,27 µM (inactive)
same,GI50,XF498,20.3 µM (inactive)
same,GI50,OVCAR-3,13.1 µM (inactive)
same,GI50,HOP-18,11.4 µM (inactive)
same,GI50,SK-MEL-2,25.6 µM (inactive)
same,GI50,SK-OV-3,21.4 µM (inactive)
same,GI50,NCI-H522,20.9 µM (inactive)
same,GI50,SNB-19,40.9 µM (inactive)
same,GI50,SF-295,20.7 µM (inactive)
same,GI50,U-251,25 µM (inactive)
same,GI50,HOP-92,18.6 µM (inactive)
same,GI50,SF-268,> 56.2 µM (inactive)
same,GI50,OVCAR-5,> 100 µM (inactive)
same,GI50,ACHN,38 µM (inactive)
same,GI50,A549,22.4 µM (inactive)
same,GI50,UACC-62,12.4 µM (inactive)
same,GI50,UO-31,26.4 µM (inactive)
same,GI50,786-0,66.5 µM (inactive)
same,GI50,EKVX,> 52.2 µM (inactive)
same,GI50,DMS-273,26.9 µM (inactive)
same,GI50,CCRF-CEM,16 µM (inactive)
same,GI50,UACC-257,26.5 µM (inactive)
same,GI50,SNB-75,13.1 µM (inactive)
same,GI50,OVCAR-4,8.3 µM (inactive)
same,GI50,NCI-H23,> 45.1 µM (inactive)
same,GI50,M19-MEL,34.2 µM (inactive)
same,GI50,RXF 631,15.2 µM (inactive)
same,GI50,M14,28.2 µM (inactive)
same,GI50,OVCAR-8,14.9 µM (inactive)
same,GI50,A498,> 36.3 µM (inactive)
same,GI50,CAKI-1,18.7 µM (inactive)
same,GI50,MOLT-4,17.9 µM (inactive)
same,GI50,COLO 205,31 µM (inactive)
same,GI50,HCC 2998,17.4 µM (inactive)
same,GI50,IGROV-1,17.7 µM (inactive)
same,GI50,HCT-116,11.4 µM (inactive)
same,GI50,KM12,52.7 µM (inactive)
same,GI50,K562,6.1 µM (inactive)
same,GI50,SNB-78,> 74.3 µM (inactive)
same,GI50,RXF 393,14.6 µM (inactive)
